# Experimental data taken from the supplement of paper PMC10307832.
# Legend:
# Assay in all cases: relative viability (nuclei count vs DMSO), 5 days (fraction); higher = more cells survive
# Sunitinib = compound: CCN(CC)CCNC(=O)c1c(C)[nH]c(/C=C2\C(=O)Nc3ccc(F)cc32)c1C [Sunitinib]
# Procedure, shortened: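 Hoechst staining, done together with fixation and permeabilisation, marked nuclei for 4× imaging and MetaXpress counting. This followed 5 days without medium change after lung cancer cell lines, kept overnight at 37 °C in 1536-well plates, were pinned with five library-drug doses (not always all listed) spaced by √10 on vehicle-anchored plates. Viability is the ratio of treated-well to vehicle-well nuclei, expressed as a median across plates. Plates passed only at control CV below 25% with at least one doubling.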
# Sunitinib + OSI-027 = compound: CCN(CC)CCNC(=O)c1c(C)[nH]c(/C=C2\C(=O)Nc3ccc(F)cc32)c1C [Sunitinib] + COc1cccc2cc(-c3nc([C@H]4CC[C@H](C(=O)O)CC4)n4ncnc(N)c34)[nH]c12 [OSI-027] (partner 0.5 µM)
# Procedure, shortened: (§1)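 Relative viability was taken as the ratio of nuclei in treated wells to nuclei in vehicle wells. Lung cancer cell lines in 1536-well plates received compounds by pin tool one day after seeding, either one drug alone or a fixed anchor-drug dose plus five library-drug doses (not always all listed) in √10 steps. Nuclei were counted on 4× images after 5 days of treatment, and values are medians of duplicate plates.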
# Sunitinib + Palbociclib = compound: CCN(CC)CCNC(=O)c1c(C)[nH]c(/C=C2\C(=O)Nc3ccc(F)cc32)c1C [Sunitinib] + CC(=O)c1c(C)c2cnc(Nc3ccc(N4CCNCC4)cn3)nc2n(C2CCCC2)c1=O [Palbociclib] (partner 0.5 µM)
# Procedure, shortened: as §1
# Sunitinib + Foretinib = compound: CCN(CC)CCNC(=O)c1c(C)[nH]c(/C=C2\C(=O)Nc3ccc(F)cc32)c1C [Sunitinib] + COc1cc2c(Oc3ccc(NC(=O)C4(C(=O)Nc5ccc(F)cc5)CC4)cc3F)ccnc2cc1OCCCN1CCOCC1 [Foretinib] (partner 0.25 µM)
# Procedure, shortened: as §1
Cell Line,relative viability (Sunitinib; 0.02 µM),relative viability (Sunitinib; 0.06325 µM),relative viability (Sunitinib; 0.2 µM),relative viability (Sunitinib; 0.6325 µM),relative viability (Sunitinib; 2 µM),relative viability (Sunitinib + OSI-027; first compound 0.02 µM),relative viability (Sunitinib + OSI-027; first compound 0.06325 µM),relative viability (Sunitinib + OSI-027; first compound 0.2 µM),relative viability (Sunitinib + OSI-027; first compound 0.6325 µM),relative viability (Sunitinib + OSI-027; first compound 2 µM),relative viability (Sunitinib + Palbociclib; first compound 0.02 µM),relative viability (Sunitinib + Palbociclib; first compound 0.06325 µM),relative viability (Sunitinib + Palbociclib; first compound 0.2 µM),relative viability (Sunitinib + Palbociclib; first compound 0.6325 µM),relative viability (Sunitinib + Palbociclib; first compound 2 µM),relative viability (Sunitinib + Foretinib; first compound 0.02 µM),relative viability (Sunitinib + Foretinib; first compound 0.06325 µM),relative viability (Sunitinib + Foretinib; first compound 0.2 µM),relative viability (Sunitinib + Foretinib; first compound 0.6325 µM),relative viability (Sunitinib + Foretinib; first compound 2 µM)
201T,0.938,0.999,1.02,0.989,0.987,0.663,0.778,0.904,0.733,0.654,0.347,0.363,0.336,0.352,0.378,1.01,1.1,1.22,1.17,1.01
A-427,0.981,,1.05,1.07,1.06,0.445,0.49,0.448,0.537,0.392,0.508,0.544,0.568,0.545,0.546,1.03,1.12,1.08,1.1,1.11
ABC-1,1.03,1.23,1.06,1.02,1.01,0.43,0.604,0.494,0.685,0.504,0.623,0.57,0.609,0.763,0.724,1.01,1.07,1.3,1.26,1
BEN,0.85,0.97,0.988,0.973,,0.306,0.32,0.281,0.3,0.273,0.487,0.467,0.452,0.445,0.496,0.598,0.704,0.576,0.665,0.644
CAL-12T,0.908,1.03,1.11,1.13,1.03,0.665,0.695,0.748,,0.397,0.416,0.427,0.46,0.493,0.473,1.07,1.27,1.32,1.03,1.28
COR-L23,0.951,1.08,1.15,1.2,1.1,0.73,0.829,0.889,0.878,0.779,0.305,0.402,0.324,0.295,0.363,0.972,0.945,1.14,0.961,0.969
COR-L 105,0.876,1.05,0.952,,0.889,0.626,0.734,0.779,0.987,0.767,0.431,0.399,0.436,0.405,0.458,1.07,1.22,0.952,1.12,1.12
Calu-6,0.954,1.04,1.09,1.06,1.07,,,,,,,,,,,0.836,0.951,0.913,0.963,
ChaGo-K-1,0.987,1.01,1.04,1.06,1.04,0.494,0.685,0.577,0.663,0.579,0.919,0.918,0.945,0.933,0.801,0.852,0.906,1,0.914,0.869
EBC-1,0.965,,1.12,1.09,1.01,,,,,,,,,,,0.101,0.112,0.0979,0.112,0.119
EKVX,0.974,1.01,1.14,1.12,1,0.671,0.728,0.771,0.741,0.666,0.423,0.453,0.508,0.403,0.463,0.739,0.752,0.918,1.3,0.892
EMC-BAC-2,0.935,1.11,1.18,1.01,1.07,0.372,0.41,0.423,0.4,0.502,0.505,0.534,0.526,0.556,0.579,0.973,1.08,1.15,1.07,0.969
EPLC-272H,0.841,1.07,0.939,0.98,0.795,0.336,0.318,0.302,0.29,0.291,0.324,0.303,0.316,0.256,0.298,0.702,0.65,,0.771,0.637
H3255,0.94,0.902,,1.02,0.988,0.66,0.583,0.645,0.621,0.666,0.313,0.299,0.302,0.311,0.331,0.782,0.573,0.819,0.861,1.01
HARA,0.966,1.16,1.03,0.987,,0.447,0.566,0.655,0.489,0.399,0.268,0.257,0.201,0.246,0.275,0.857,1.13,0.97,0.991,0.868
HCC-15,0.988,1.11,,1.04,1,0.608,,0.852,0.714,0.641,0.707,0.737,0.792,0.696,0.715,1.07,1.14,1.16,1.13,1.02
HCC-44,,1.04,1.04,1.01,1.04,0.558,0.459,0.676,0.64,0.665,,,1.01,0.925,1.01,,,,,
HCC-78,0.984,0.947,0.994,0.899,1,0.352,0.397,0.377,0.379,0.411,0.486,0.504,0.498,0.472,0.526,0.527,0.588,0.525,0.545,0.613
